Laboratory results published in article PMC4233664, “Synergistic Effects of Clopidogrel and Fufang Danshen Dripping Pills by Modulation of the Metabolism Target and Pharmacokinetics” (Evidence-based Complementary and Alternative Medicine : eCAM, 2014).

Legend:
[1] = Pharmacokinetic study of CPGS in rat plasma after oral clopidogrel alone or with FDDP; type: in vivo, SD rats
Protocol: Analyses were performed using the Agilent HPLC 1100 system (Agilent, USA) consisting of a quat pump (G1311A), an autosampler (G1313A), and an online degasser (G1322A). The chromatographic separation was performed on an Agilent Zorbax SB C18 column (4.6 mm × 250 mm, 5 μm). A simple gradient method was used, in which the percentage of acetonitrile-buffer (0.2% phosphoric acid in water) was varied as shown in Table 1 at a flow rate of 1.0 mL/min. The injection volume was 10 μL. The total LC run time was 12 min with the column temperature kept at 30°C and the detection at a wavelength of 220 nm.
An aliquot of 10 μL 1 M hydrochloric acid (HCL), 100 μL blood plasma, and 10 μL of IS (160 μg/mL) was added into a 1.5 mL centrifuge tube. After vortex-mixing for 1 min, 1 mL of extraction solvent (ethyl acetate-dichloromethane; 4 : 1, V/V) was added and vortexed vigorously for 4 min, followed by centrifugation for 12 min at 12000 rpm. Next, 950 μL of supernatant was transferred into another tube and evaporated to dryness at 40°C for 90 min under a gentle stream of nitrogen. The residue was reconstituted with 100 μL of the mobile phase and vortexed for 1 min and then centrifuged for 5 min at 12000 rpm. For analysis, 10 μL of the supernatant was injected onto the HPLC system. The plasma concentrations of the analytes exceeded the upper limit of quantification, and therefore the sample was diluted with blank plasma and vortexed for 1 min. A 100 μL aliquot of diluted sample was processed under the same sample pretreatment procedure as mentioned above.
The preclinical pharmacokinetic study was based on 16 SD rats. The investigation was approved by the Animal Ethics Committee of the Nanjing University of Traditional Chinese Medicine. Two groups of 8 rats each were used according to a parallel study. The clopidogrel-only group received 30 mg/kg oral administration of clopidogrel. The combination group (clopidogrel 30 mg/kg + FDDP 324 mg/kg) received their dose administered as a combination. The rats fasted for 12 h prior to the experiment, while free access to water remained. Plasma samples were collected at 0, 0.25, 0.5, 1, 1.5, 2.3, 4, 6, 8, 10, 12, and 24 h after dosing. Blood samples of 400 μL were obtained via an in-dwelling catheter in the caudal vein and collected into heparinized tubes. Then, the plasma was centrifuged for 10 min at 4000 rpm and the supernatant was transferred to labelled plastic vials at −80°C until the completion of the analysis.
Pharmacokinetic parameters were calculated using Drug and Statistic (DAS) 3.0 pharmacokinetic software (Chinese Pharmacological Association, Anhui, China). The pharmacokinetic parameters included the compartment parameters and statistical parameters (Table 6).
The area under the plasma concentration-time curve (AUC) was calculated using the linear trapezoidal rule. The elimination rate constant (kel) was calculated by linear regression of the terminal points of the semilog plot of the plasma concentration against time. The half-life of drug elimination during the terminal phase (t 1/2) was calculated from the formula t 1/2 = 0.693/kel. Mean residence time (MRT) was calculated as AUMC/AUC, where AUMC is the area under the first moment of the plasma concentration-time curve. The volume of distribution (Vd) of the central compartment was calculated as dose/C 0, where C 0 is the concentration measured just after the administration. Plasma clearance (CL) was calculated as dose/AUC.

[2] = Stability of CPGS in plasma samples (HPLC method validation); type: physicochemical, rat
Protocol: Stability experiments were performed to evaluate the analyte stability in stock solutions and in plasma samples under different conditions. Room temperature stability, refrigerated stability of extracted sample, freeze-thaw stability, and long-term stability were performed using three replicates at each QC level.

[3] = tested on: carboxyl esterase 1 (CES1); settings: in the liver; cited from earlier work
cytochrome P450 (CYP) = settings: cited from earlier work
antiplatelet responses = settings: conventional doses of clopidogrel; cited from earlier work
[4] = CPGS in rat plasma, clopidogrel 30 mg/kg intragastric, administered alone, 21 days
[5] = CPGS in rat plasma, coadministration clopidogrel 30 mg/kg + FDDP 324 mg/kg intragastric, 21 days
[6] = CPGS in rat plasma, coadministration clopidogrel 30 mg/kg + FDDP 324 mg/kg intragastric, 21 days, P < 0.05 vs clopidogrel-only
[7] = combination vs clopidogrel alone, rats
[8] = combination vs clopidogrel-only group, rats
[9] = combination vs clopidogrel-only group, rats, not statistically significant

## O=C(O)[C@H](c1ccccc1Cl)N1CCc2sccc2C1 [CPGS]
[1]; [4]
  AUC (0–tn): 90.529 ± 18.557 mg/L∗h
  AUC (0–∞): 104.965 ± 24.367 mg/L∗h
  CL/F: 5.15 ± 2.08 mL/min/kg
  Ka: 6.807 ± 6.698
  MAT: 13.336 ± 2.566 h
  MRT (0–tn): 7.453 ± 0.747 h
  MRT (0–∞): 11.359 ± 2.022 h
  T1/2β: 14.788 ± 14.311 h
  T max: 1.208 ± 0.332 h
  V/F: 5.079 ± 2.153 L/kg
[1]; [5]
  AUC (0–tn): 70.314 ± 35.213 mg/L∗h
  AUC (0–∞): 76.324 ± 39.971 mg/L∗h
  C max: 10146 ± 4848 ng/mL
  CL/F: 7.58 ± 3.07 mL/min/kg
  Ka: 2.519 ± 3.073
  MRT (0–tn): 6.871 ± 0.741 h
  T1/2β: 19.495 ± 18.931 h
  T max: 1.583 ± 0.376 h
  V/F: 9.987 ± 9.820 L/kg
[1]; [6]
  MAT: 8.198 ± 3.556 h
  MRT (0–∞): 8.854 ± 1.873 h
[1]; [7]
  Change of area under the curve of CPGS by FDDP: decreased
  Change of peak plasma concentration of CPGS by FDDP: decreased
[1]; [8]
  Change of MAT of CPGS in the combination group: greater degrees of decline
  Change of MRT (0-∞) of CPGS in the combination group: greater degrees of decline
[1]; [9]
  Change of CL/F of CPGS in the combination group: slightly higher
  Change of T max of CPGS in the combination group: slightly higher
[1]; rat plasma after clopidogrel alone or with FDDP
  Pharmacokinetic model describing CPGS: two-compartment open model
[2]; 24 h at room temperature
  Stability in extracted plasma samples: stable
[2]; stored at −20°C, 20 days
  Long-term stability of spiked plasma samples: stable

## COC(=O)[C@H](c1ccccc1Cl)N1CCc2sccc2C1 [clopidogrel]
[3]
  Share of absorbed parent drug transformed by CES1 into inactive carboxylic acid derivative (CPGS): 85%
Cytochrome P450 (CYP)
  Share of absorbed clopidogrel dose transformed by CYP into thiol metabolite: 15%
Antiplatelet responses
  Patients displaying inadequate antiplatelet responses: 5–40%
